Test results from US9850283B2, “Macrocyclic inhibitors of the PD-1/PD-L1 and CD80(B7-1)/PD-L1 protein/protein interactions” (BRISTOL-MYERS SQUIBB COMPANY, priority 2013, dated 2017).
Positions of bridges follow the written chain, without caps; N, C: chain ends. Non-standard residues stand in square brackets, D forms with d. Residues, ends and D or L forms follow the SMILES beside them. Pro(trans-4-F) = O=C(O)[C@@H]1C[C@@H](F)CN1; Hyp = O=C(O)[C@@H]1C[C@@H](O)CN1; NMeNle = CCCC[C@H](NC)C(=O)O; NMeA = CN[C@@H](C)C(=O)O; Dab = NCC[C@H](N)C(=O)O; Dap = NC[C@H](N)C(=O)O

What was measured:
[1] = target: T1, LK35.2-hPD-L1 cells / PE-labeled PD-1-Ig (Homo sapiens, UniProt Q9NZQ7); assay: LK35.2-hPD-L1 cell binding high-content screening assay; format: cell-based; conditions: cell binding assay, cell line not given; cluster symbol; read-out: CBA IC50 cluster
T1 construct: expressed in transfected cells; host or cells: LK35.2 mouse B cell line
Outline: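 Compound effect on PD-1/PD-L1 binding is measured by imaging cell-associated phycoerythrin signal. Human PD-1-Ig (PE on Ig tag, 1 nM final) is applied with compound to a murine B cell line overexpressing human PD-L1 for 1 h at 37 °C in serum-containing RPMI.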

Human PD-L1/PD-1 = target: T2, Human PD-L1/PD-1 (Homo sapiens, UniProt Q9NZQ7); assay: HTRF PD-1-Ig/PD-L1-His binding assay (human PD-L1); conditions: cluster symbol; read-out: HTRF IC50 cluster
T2 construct: made in house; host or cells: HEK293T
Outline: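 Ig- and His-fused extracellular PD-1/PD-L1 binding in BSA/Tween-20 dPBS. HTRF with Eu anti-Ig (1 nM final) and APC anti-His (20 nM final).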

T1 sequence (Q9NZQ7 19-290): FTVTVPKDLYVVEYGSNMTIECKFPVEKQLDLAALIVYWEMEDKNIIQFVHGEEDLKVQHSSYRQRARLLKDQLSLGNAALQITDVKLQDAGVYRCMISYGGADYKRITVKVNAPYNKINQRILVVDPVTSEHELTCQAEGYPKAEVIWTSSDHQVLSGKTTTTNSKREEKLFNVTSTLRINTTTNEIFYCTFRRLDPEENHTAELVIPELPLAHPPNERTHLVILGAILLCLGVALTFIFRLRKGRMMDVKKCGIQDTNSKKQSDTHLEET
T2 sequence (Q9NZQ7 with tags, fused parts or gaps): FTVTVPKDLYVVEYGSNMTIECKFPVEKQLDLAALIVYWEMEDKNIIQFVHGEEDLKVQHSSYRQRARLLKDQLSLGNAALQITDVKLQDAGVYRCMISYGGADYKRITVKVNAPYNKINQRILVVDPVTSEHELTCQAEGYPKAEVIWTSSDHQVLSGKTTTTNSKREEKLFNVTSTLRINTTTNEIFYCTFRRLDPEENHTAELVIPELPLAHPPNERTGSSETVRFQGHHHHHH

Row | IC50 [1] [nM] | IC50 (Human PD-L1/PD-1) [nM] | SMILES
1 | 0.158 to 4.71 | 0.385 to 6.74 | CCCC[C@H]1C(=O)N(C)[C@@H](CCCC)C(=O)N[C@@H](C)C(=O)N[C@H](C(=O)NCC(N)=O)CSCC(=O)N[C@@H](Cc2ccc(O)cc2)C(=O)N(C)[C@@H](C)C(=O)N[C@@H](CC(N)=O)C(=O)N2CCC[C@H]2C(=O)N[C@@H](Cc2cnc[nH]2)C(=O)N[C@@H](CCC(=O)O)C(=O)N2C[C@H](O)C[C@H]2C(=O)N[C@@H](Cc2c[nH]c3ccccc23)C(=O)N[C@@H](CCN)C(=O)N[C@@H](Cc2c[nH]c3ccccc23)C(=O)N1C [Example 5036] ({CH2CO}-Y[NMeA]NPHE[Hyp]W[Dab]W[NMeNle][NMeNle]ACG-NH2; thioether N-14)
2 | 0.158 to 4.71 | 0.385 to 6.74 | CCCC[C@H]1C(=O)N(C)[C@@H](CCCC)C(=O)N[C@@H](C)C(=O)N[C@H](C(=O)NCC(N)=O)CSCC(=O)N[C@@H](Cc2ccc(O)cc2)C(=O)N(C)[C@@H](C)C(=O)N[C@@H](CC(=O)O)C(=O)N2CCC[C@H]2C(=O)N[C@@H](Cc2cnc[nH]2)C(=O)N[C@@H](CCC(=O)O)C(=O)N2C[C@H](O)C[C@H]2C(=O)N[C@@H](Cc2c[nH]c3ccccc23)C(=O)N[C@@H](CCN)C(=O)N[C@@H](Cc2c[nH]c3ccccc23)C(=O)N1C [Example 5037] ({CH2CO}-Y[NMeA]DPHE[Hyp]W[Dab]W[NMeNle][NMeNle]ACG-NH2; thioether N-14)
3 | 0.158 to 4.71 | 6.76 to 30.3 | CCCC[C@H]1C(=O)N(C)[C@@H](CCCC)C(=O)N[C@@H](C)C(=O)N[C@H](C(=O)NCC(N)=O)CSCC(=O)N[C@@H](Cc2ccc(O)cc2)C(=O)N(C)[C@@H](C)C(=O)N[C@@H](CC(N)=O)C(=O)N2CCC[C@H]2C(=O)N[C@@H](Cc2cnc[nH]2)C(=O)N[C@@H](CCC(N)=O)C(=O)N2C[C@H](O)C[C@H]2C(=O)N[C@@H](Cc2c[nH]c3ccccc23)C(=O)N[C@@H](CCN)C(=O)N[C@@H](Cc2c[nH]c3ccccc23)C(=O)N1C [Example 5038] ({CH2CO}-Y[NMeA]NPHQ[Hyp]W[Dab]W[NMeNle][NMeNle]ACG-NH2; thioether N-14)
4 | 0.158 to 4.71 | 0.385 to 6.74 | CCCC[C@H]1C(=O)N(C)[C@@H](CCCC)C(=O)N[C@@H](C)C(=O)N[C@H](C(=O)NCC(N)=O)CSCC(=O)N[C@@H](Cc2ccc(O)cc2)C(=O)N(C)[C@@H](C)C(=O)N[C@@H](CC(=O)O)C(=O)N2CCC[C@H]2C(=O)N[C@@H](Cc2cnc[nH]2)C(=O)N[C@@H](CCC(N)=O)C(=O)N2C[C@H](O)C[C@H]2C(=O)N[C@@H](Cc2c[nH]c3ccccc23)C(=O)N[C@@H](CCN)C(=O)N[C@@H](Cc2c[nH]c3ccccc23)C(=O)N1C [Example 5039] ({CH2CO}-Y[NMeA]DPHQ[Hyp]W[Dab]W[NMeNle][NMeNle]ACG-NH2; thioether N-14)
5 | 0.158 to 4.71 | 6.76 to 30.3 | CCCC[C@H]1C(=O)N(C)[C@@H](CCCC)C(=O)N[C@@H](C)C(=O)N[C@H](C(=O)NCC(N)=O)CSCC(=O)N[C@@H](Cc2ccc(O)cc2)C(=O)N(C)[C@@H](C)C(=O)N[C@@H](CC(N)=O)C(=O)N2CCC[C@H]2C(=O)N[C@@H](CN)C(=O)N[C@@H](CCC(=O)O)C(=O)N2C[C@H](O)C[C@H]2C(=O)N[C@@H](Cc2c[nH]c3ccccc23)C(=O)N[C@@H](CCN)C(=O)N[C@@H](Cc2c[nH]c3ccccc23)C(=O)N1C [Example 5040] ({CH2CO}-Y[NMeA]NP[Dap]E[Hyp]W[Dab]W[NMeNle][NMeNle]ACG-NH2; thioether N-14)
6 | 0.158 to 4.71 | 6.76 to 30.3 | CCCC[C@H]1C(=O)N(C)[C@@H](CCCC)C(=O)N[C@@H](CCN)C(=O)N[C@H](C(=O)NCC(N)=O)CSCC(=O)N[C@@H](Cc2ccc(O)cc2)C(=O)N(C)[C@@H](C)C(=O)N[C@@H](CC(N)=O)C(=O)N2CCC[C@H]2C(=O)N[C@@H](Cc2cnc[nH]2)C(=O)N[C@@H](CCC(N)=O)C(=O)N2C[C@H](O)C[C@H]2C(=O)N[C@@H](Cc2c[nH]c3ccccc23)C(=O)N[C@@H](CO)C(=O)N[C@@H](Cc2c[nH]c3ccccc23)C(=O)N1C [Example 5041] ({CH2CO}-Y[NMeA]NPHQ[Hyp]WSW[NMeNle][NMeNle][Dab]CG-NH2; thioether N-14)
7 | 0.158 to 4.71 | 0.385 to 6.74 | CCCC[C@H]1C(=O)N(C)[C@@H](CCCC)C(=O)N[C@@H](CCN)C(=O)N[C@H](C(=O)NCC(N)=O)CSCC(=O)N[C@@H](Cc2ccc(O)cc2)C(=O)N(C)[C@@H](C)C(=O)N[C@@H](CC(N)=O)C(=O)N2CCC[C@H]2C(=O)N[C@@H](CN)C(=O)N[C@@H](CCC(N)=O)C(=O)N2C[C@H](O)C[C@H]2C(=O)N[C@@H](Cc2c[nH]c3ccccc23)C(=O)N[C@@H](CO)C(=O)N[C@@H](Cc2c[nH]c3ccccc23)C(=O)N1C [Example 5042] ({CH2CO}-Y[NMeA]NP[Dap]Q[Hyp]WSW[NMeNle][NMeNle][Dab]CG-NH2; thioether N-14)
8 | 0.158 to 4.71 | 0.385 to 6.74 | CCCC[C@H]1C(=O)N(C)[C@@H](CCCC)C(=O)N[C@@H](CCN)C(=O)N[C@H](C(=O)NCC(N)=O)CSCC(=O)N[C@@H](Cc2ccc(O)cc2)C(=O)N(C)[C@@H](C)C(=O)N[C@@H](CC(N)=O)C(=O)N2CCC[C@H]2C(=O)N[C@@H](CN)C(=O)N[C@@H](CCC(N)=O)C(=O)N2C[C@H](O)C[C@H]2C(=O)N[C@@H](Cc2c[nH]c3ccccc23)C(=O)N[C@@H](CCN)C(=O)N[C@@H](Cc2c[nH]c3ccccc23)C(=O)N1C [Example 5044] ({CH2CO}-Y[NMeA]NP[Dap]Q[Hyp]W[Dab]W[NMeNle][NMeNle][Dab]CG-NH2; thioether N-14)
9 | 4.78 to 72.9 | 6.76 to 30.3 | CCCC[C@H]1C(=O)N(C)[C@@H](CCCC)C(=O)N[C@@H](C)C(=O)N[C@H](C(=O)NCC(N)=O)CSCC(=O)N[C@@H](Cc2ccc(O)cc2)C(=O)N(C)[C@@H](C)C(=O)N[C@@H](CC(N)=O)C(=O)N2CCC[C@H]2C(=O)N[C@@H](Cc2cnc[nH]2)C(=O)N[C@@H](CCC(N)=O)C(=O)N2C[C@H](O)C[C@H]2C(=O)N[C@@H](Cc2c[nH]c3ccccc23)C(=O)N[C@@H](CO)C(=O)N[C@@H](Cc2c[nH]c3ccccc23)C(=O)N1C [Example 5047]

Continued, compound first:

Row | SMILES | IC50 [1] [nM] | IC50 (Human PD-L1/PD-1) [nM]
10 | CCCC[C@H]1C(=O)N(C)[C@@H](CCCC)C(=O)N[C@@H](CCCNC(=N)N)C(=O)N[C@H](C(=O)NCC(N)=O)CSCC(=O)N[C@@H](Cc2ccccc2)C(=O)N(C)[C@@H](C)C(=O)N[C@@H](CC(N)=O)C(=O)N2CCC[C@H]2C(=O)N[C@@H](Cc2cnc[nH]2)C(=O)N[C@@H](CC(C)C)C(=O)N2C[C@H](F)C[C@H]2C(=O)N[C@@H](Cc2c[nH]c3ccccc23)C(=O)N[C@@H](CO)C(=O)N[C@@H](Cc2c[nH]c3ccccc23)C(=O)N1C [Example 5033] ({CH2CO}-F[NMeA]NPHL[Pro(trans-4-F)]WSW[NMeNle][NMeNle]RCG-NH2; thioether N-14) | 4.78 to 72.9 | 6.76 to 30.3
11 | CCCC[C@H]1C(=O)N(C)[C@@H](CCCC)C(=O)N[C@@H](CCN)C(=O)N[C@H](C(=O)NCC(N)=O)CSCC(=O)N[C@@H](Cc2ccc(O)cc2)C(=O)N(C)[C@@H](C)C(=O)N[C@@H](CC(=O)O)C(=O)N2CCC[C@H]2C(=O)N[C@@H](Cc2cnc[nH]2)C(=O)N[C@@H](CCC(=O)O)C(=O)N2C[C@H](O)C[C@H]2C(=O)N[C@@H](Cc2c[nH]c3ccccc23)C(=O)N[C@@H](CCN)C(=O)N[C@@H](Cc2c[nH]c3ccccc23)C(=O)N1C [Example 5034] ({CH2CO}-Y[NMeA]DPHE[Hyp]W[Dab]W[NMeNle][NMeNle][Dab]CG-NH2; thioether N-14) | 0.158 to 4.71 | 0.385 to 6.74
12 | CCCC[C@H]1C(=O)N(C)[C@@H](CCCC)C(=O)N[C@@H](C)C(=O)N[C@H](C(=O)NCC(N)=O)CSCC(=O)N[C@@H](Cc2ccc(O)cc2)C(=O)N(C)[C@@H](C)C(=O)N[C@@H](CC(N)=O)C(=O)N2CCC[C@H]2C(=O)N[C@@H](Cc2cnc[nH]2)C(=O)N[C@@H](CC(C)C)C(=O)N2C[C@H](O)C[C@H]2C(=O)N[C@@H](Cc2c[nH]c3ccccc23)C(=O)N[C@@H](CCN)C(=O)N[C@@H](Cc2c[nH]c3ccccc23)C(=O)N1C [Example 5035] | 0.158 to 4.71 | 0.385 to 6.74
13 | CCCC[C@H]1C(=O)N(C)[C@@H](CCCC)C(=O)N[C@@H](CCN)C(=O)N[C@H](C(=O)NCC(N)=O)CSCC(=O)N[C@@H](Cc2ccc(O)cc2)C(=O)N(C)[C@@H](C)C(=O)N[C@@H](CC(N)=O)C(=O)N2CCC[C@H]2C(=O)N[C@@H](Cc2cnc[nH]2)C(=O)N[C@@H](CCC(N)=O)C(=O)N2C[C@H](O)C[C@H]2C(=O)N[C@@H](Cc2c[nH]c3ccccc23)C(=O)N[C@@H](CCN)C(=O)N[C@@H](Cc2c[nH]c3ccccc23)C(=O)N1C [Example 5043] ({CH2CO}-Y[NMeA]NPHQ[Hyp]W[Dab]W[NMeNle][NMeNle][Dab]CG-NH2; thioether N-14) | 0.158 to 4.71 | 6.76 to 30.3
14 | CCCC[C@H]1C(=O)N(C)[C@@H](CCCC)C(=O)N[C@@H](CCN)C(=O)N[C@H](C(=O)NCC(N)=O)CSCC(=O)N[C@@H](Cc2ccc(O)cc2)C(=O)N(C)[C@@H](C)C(=O)N[C@@H](CC(=O)O)C(=O)N2CCC[C@H]2C(=O)N[C@@H](Cc2cnc[nH]2)C(=O)N[C@@H](CCC(N)=O)C(=O)N2C[C@H](O)C[C@H]2C(=O)N[C@@H](Cc2c[nH]c3ccccc23)C(=O)N[C@@H](CO)C(=O)N[C@@H](Cc2c[nH]c3ccccc23)C(=O)N1C [Example 5045] ({CH2CO}-Y[NMeA]DPHQ[Hyp]WSW[NMeNle][NMeNle][Dab]CG-NH2; thioether N-14) | 0.158 to 4.71 | 0.385 to 6.74
15 | CCCC[C@H]1C(=O)N(C)[C@@H](CCCC)C(=O)N[C@@H](CCN)C(=O)N[C@H](C(=O)NCC(N)=O)CSCC(=O)N[C@@H](Cc2ccc(O)cc2)C(=O)N(C)[C@@H](C)C(=O)N[C@@H](CC(=O)O)C(=O)N2CCC[C@H]2C(=O)N[C@@H](Cc2cnc[nH]2)C(=O)N[C@@H](CCC(N)=O)C(=O)N2C[C@H](O)C[C@H]2C(=O)N[C@@H](Cc2c[nH]c3ccccc23)C(=O)N[C@@H](CCN)C(=O)N[C@@H](Cc2c[nH]c3ccccc23)C(=O)N1C [Example 5046] ({CH2CO}-Y[NMeA]DPHQ[Hyp]W[Dab]W[NMeNle][NMeNle][Dab]CG-NH2; thioether N-14) | > 74.3 | 0.385 to 6.74
